In article PMC12638251, “Uridine-sensitized screening identifies demethoxy-coenzyme Q and NUDT5 as regulators of nucleotide synthesis” (Nature Metabolism, 2025):

Target: T1, PPAT (amidophosphoribosyltransferase) (Homo sapiens, UniProt Q06203)
T1 construct: with NUDT5
Experiment: native PAGE of K562 lysate with PRPP dose curve (loss of NUDT5-PPAT oligomer); co-immunoprecipitation with […] PRPP
Format: biochemical

T1 sequence (Q06203 12-517): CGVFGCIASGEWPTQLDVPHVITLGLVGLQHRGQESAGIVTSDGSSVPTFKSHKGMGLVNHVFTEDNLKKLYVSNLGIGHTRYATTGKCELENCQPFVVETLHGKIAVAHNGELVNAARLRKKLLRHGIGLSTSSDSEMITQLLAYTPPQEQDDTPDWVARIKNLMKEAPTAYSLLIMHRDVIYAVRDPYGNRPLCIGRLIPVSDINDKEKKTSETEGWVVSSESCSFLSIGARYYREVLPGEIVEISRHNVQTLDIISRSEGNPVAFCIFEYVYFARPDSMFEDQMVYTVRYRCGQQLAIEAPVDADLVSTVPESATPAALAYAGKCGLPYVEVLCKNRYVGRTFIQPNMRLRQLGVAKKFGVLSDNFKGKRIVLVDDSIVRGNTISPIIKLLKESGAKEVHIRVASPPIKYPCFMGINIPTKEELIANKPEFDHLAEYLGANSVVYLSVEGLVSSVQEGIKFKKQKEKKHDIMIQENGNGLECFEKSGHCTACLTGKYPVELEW
T1 sequence (O95848 whole entry partner): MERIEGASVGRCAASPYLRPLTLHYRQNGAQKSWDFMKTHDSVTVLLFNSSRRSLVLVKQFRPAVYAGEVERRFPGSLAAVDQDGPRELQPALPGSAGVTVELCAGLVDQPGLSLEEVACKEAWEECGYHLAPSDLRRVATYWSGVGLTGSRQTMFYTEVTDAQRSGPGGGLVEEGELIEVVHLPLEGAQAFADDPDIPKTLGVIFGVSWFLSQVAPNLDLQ

- IC50: 100 µM
SMILES: O=P(O)(O)OC[C@H]1OC(OP(=O)(O)OP(=O)(O)O)[C@H](O)[C@@H]1O (stereo partly shown) [PRPP, phosphoribosyl pyrophosphate]
